From ChEMBL document CHEMBL1641475, “Synthesis, hypolipidemic and hypoglycemic activity of some novel 2-(4-(2-substituted aminothiazole-4-yl) phenoxy)-2-methyl propanoic acid derivatives” (2011)

Tests used:
Format in all cases: functional
Rattus norvegicus [1] = test: Antihyperlipidemic activity in high fat diet-induced hyperlipidemic Sprague-Dawley rat assessed as blood cholesterol level at 250 mg/kg, po after 7 days (reference value: 121.5 +/- 1.335 mg/dl)
Rattus norvegicus [2] = test: Antihyperlipidemic activity in high fat diet-induced hyperlipidemic Sprague-Dawley rat assessed as blood triglyceride level at 250 mg/kg, po after 7 days (reference value: 135 +/- 1.592 mg/dl)
Rattus norvegicus [3] = test: Antihyperlipidemic activity in high fat diet-induced hyperlipidemic Sprague-Dawley rat assessed as blood VLDL level at 250 mg/kg, po after 7 days (reference value: 27 +/- 0.3183 mg/dl)
Rattus norvegicus [4] = test: Antihyperlipidemic activity in high fat diet-induced hyperlipidemic Sprague-Dawley rat assessed as blood LDL level at 250 mg/kg, po after 7 days (reference value: 75.5 +/- 1.24 mg/dl)
Rattus norvegicus [5] = test: Antihyperlipidemic activity in high fat diet-induced hyperlipidemic Sprague-Dawley rat assessed as blood HDL level at 250 mg/kg, po after 7 days (reference value: 19 +/- 0.5774 mg/dl)
Rattus norvegicus [6] = test: Antihyperglycemic activity in high fat diet-induced hyperglycemic Sprague-Dawley rat assessed as blood glucose level at 250 mg/kg, po after 7 days (reference value: 106.3 +/- 0.6666 mg/dl)

SMILES	Activity (Rattus norvegicus [1])	Activity (Rattus norvegicus [2])	Activity (Rattus norvegicus [3])	Activity (Rattus norvegicus [4])	Activity (Rattus norvegicus [5])	Activity (Rattus norvegicus [6])
CC(=O)Nc1nc(-c2ccc(OC(C)(C)C(=O)O)cc2)cs1	108.3 mg/dL	80.5 mg/dL	16.1 mg/dL	60.63 mg/dL	32.67 mg/dL	81.5 mg/dL
CC(C)(Oc1ccc(-c2csc(NC(=O)CCl)n2)cc1)C(=O)O	111.5 mg/dL	85.5 mg/dL	17.1 mg/dL	59.53 mg/dL	34.33 mg/dL	72.33 mg/dL
CC(C)(Oc1ccc(-c2csc(NC(=O)c3ccccc3)n2)cc1)C(=O)O	96.5 mg/dL	85.5 mg/dL	15.47 mg/dL	43.67 mg/dL	37 mg/dL	74.5 mg/dL
CC(C)(Oc1ccc(-c2csc(NCC(=O)c3ccc(Cl)cc3)n2)cc1)C(=O)O	108.3 mg/dL	77.33 mg/dL	16.23 mg/dL	61.18 mg/dL	32.5 mg/dL	74.33 mg/dL
CC(C)(Oc1ccc(-c2csc(NC(=O)CC(=O)Cl)n2)cc1)C(=O)O	116.5 mg/dL	81.17 mg/dL	16.53 mg/dL	67.75 mg/dL	35.83 mg/dL	66.67 mg/dL
CC(C)(Oc1ccc(-c2csc(NC(=O)C(=O)Cl)n2)cc1)C(=O)O	96.5 mg/dL	82.67 mg/dL	15.47 mg/dL	49.35 mg/dL	32.5 mg/dL	75.17 mg/dL
CC(C)OC(=O)C(C)(C)Oc1ccc(C(=O)c2ccc(Cl)cc2)cc1 [FENOFIBRATE]	105.2 mg/dL	73.17 mg/dL	14.67 mg/dL	55.33 mg/dL	33.5 mg/dL	70.5 mg/dL
